Marks after values point to notes of the source that are not given here.
Each molecule was assayed on BRD pathogens, M. haemolytica and P. multocida (assay: In-vitro MIC model, BRD pathogen screening panel). Settings: at least one BRD strain.
Type: cell-based, Mannheimia haemolytica; Pasteurella multocida

SMILES	MIC flag at the example number (Table E)
CCCNC[C@]1(O)[C@H](C)O[C@@H](O[C@H]2[C@H](C)[C@@H](O[C@@H]3O[C@H](C)C[C@H](N(C)C)[C@H]3Oc3ccc(OC)c(OC(C)C)c3)[C@](C)(O)C[C@@H](C)CN[C@H](C)[C@@H](O)[C@](C)(O)[C@@H](CC)OC(=O)[C@@H]2C)C[C@@]1(C)OC [Example E-29]	E-29* (MIC ≤ 64 μg/mL for at least one BRD strain)
CCCNC[C@]1(O)[C@H](C)O[C@@H](O[C@H]2[C@H](C)[C@@H](O[C@@H]3O[C@H](C)C[C@H](NC)[C@H]3Oc3ccncc3)[C@](C)(O)C[C@@H](C)CN[C@H](C)[C@@H](O)[C@](C)(O)[C@@H](CC)OC(=O)[C@@H]2C)C[C@@]1(C)OC [Example E-32]	E-32* (MIC ≤ 64 μg/mL for at least one BRD strain)
CCCNC[C@]1(O)[C@H](C)O[C@@H](O[C@H]2[C@H](C)[C@@H](O[C@@H]3O[C@H](C)C[C@H](NC)[C@H]3Oc3ncccn3)[C@](C)(O)C[C@@H](C)CN[C@H](C)[C@@H](O)[C@](C)(O)[C@@H](CC)OC(=O)[C@@H]2C)C[C@@]1(C)OC [Example E-33]	E-33* (MIC ≤ 64 μg/mL for at least one BRD strain)
CCCNC[C@]1(O)[C@H](C)O[C@@H](O[C@H]2[C@H](C)[C@@H](O[C@@H]3O[C@H](C)C[C@H](NC)[C@H]3Oc3ccc([N+](=O)[O-])cc3)[C@](C)(O)C[C@@H](C)CN[C@H](C)[C@@H](O)[C@](C)(O)[C@@H](CC)OC(=O)[C@@H]2C)C[C@@]1(C)OC [Example E-35]	E-35* (MIC ≤ 64 μg/mL for at least one BRD strain)
CCCNC[C@]1(O)[C@H](C)O[C@@H](O[C@H]2[C@H](C)[C@@H](O[C@@H]3O[C@H](C)C[C@H](NC)[C@H]3Oc3cccnc3C)[C@](C)(O)C[C@@H](C)CN[C@H](C)[C@@H](O)[C@](C)(O)[C@@H](CC)OC(=O)[C@@H]2C)C[C@@]1(C)OC [Example E-44]	E-44* (MIC ≤ 64 μg/mL for at least one BRD strain)
CCCNC[C@]1(O)[C@H](C)O[C@@H](O[C@H]2[C@H](C)[C@@H](O[C@@H]3O[C@H](C)C[C@H](NC)[C@H]3Oc3cc(C)ccc3F)[C@](C)(O)C[C@@H](C)CN[C@H](C)[C@@H](O)[C@](C)(O)[C@@H](CC)OC(=O)[C@@H]2C)C[C@@]1(C)OC [Example E-53]	E-53* (MIC ≤ 64 μg/mL for at least one BRD strain)
CCCNC[C@]1(O)[C@H](C)O[C@@H](O[C@H]2[C@H](C)[C@@H](O[C@@H]3O[C@H](C)C[C@H](NC)[C@H]3Oc3cccc(OC(F)(F)F)c3)[C@](C)(O)C[C@@H](C)CN[C@H](C)[C@@H](O)[C@](C)(O)[C@@H](CC)OC(=O)[C@@H]2C)C[C@@]1(C)OC [Example E-54]	E-54* (MIC ≤ 64 μg/mL for at least one BRD strain)
CCCNC[C@]1(O)[C@H](C)O[C@@H](O[C@H]2[C@H](C)[C@@H](O[C@@H]3O[C@H](C)C[C@H](NC)[C@H]3Oc3ccc(F)c(F)c3F)[C@](C)(O)C[C@@H](C)CN[C@H](C)[C@@H](O)[C@](C)(O)[C@@H](CC)OC(=O)[C@@H]2C)C[C@@]1(C)OC [Example E-55]	E-55* (MIC ≤ 64 μg/mL for at least one BRD strain)
CCCNC[C@]1(O)[C@H](C)O[C@@H](O[C@H]2[C@H](C)[C@@H](O[C@@H]3O[C@H](C)C[C@H](NC)[C@H]3Oc3ccc(F)cc3F)[C@](C)(O)C[C@@H](C)CN[C@H](C)[C@@H](O)[C@](C)(O)[C@@H](CC)OC(=O)[C@@H]2C)C[C@@]1(C)OC [Example E-58]	E-58* (MIC ≤ 64 μg/mL for at least one BRD strain)
CCCNC[C@]1(O)[C@H](C)O[C@@H](O[C@H]2[C@H](C)[C@@H](O[C@@H]3O[C@H](C)C[C@H](NC)[C@H]3Oc3cccnc3OCC)[C@](C)(O)C[C@@H](C)CN[C@H](C)[C@@H](O)[C@](C)(O)[C@@H](CC)OC(=O)[C@@H]2C)C[C@@]1(C)OC [Example E-59]	E-59* (MIC ≤ 64 μg/mL for at least one BRD strain)
CCCNC[C@]1(O)[C@H](C)O[C@@H](O[C@H]2[C@H](C)[C@@H](O[C@@H]3O[C@H](C)C[C@H](NC)[C@H]3Oc3cccc4cc[nH]c34)[C@](C)(O)C[C@@H](C)CN[C@H](C)[C@@H](O)[C@](C)(O)[C@@H](CC)OC(=O)[C@@H]2C)C[C@@]1(C)OC [Example E-65]	E-65* (MIC ≤ 64 μg/mL for at least one BRD strain)
CCCNC[C@]1(O)[C@H](C)O[C@@H](O[C@H]2[C@H](C)[C@@H](O[C@@H]3O[C@H](C)C[C@H](NC)[C@H]3Oc3ccccc3S(C)(=O)=O)[C@](C)(O)C[C@@H](C)CN[C@H](C)[C@@H](O)[C@](C)(O)[C@@H](CC)OC(=O)[C@@H]2C)C[C@@]1(C)OC [Example E-66]	E-66* (MIC ≤ 64 μg/mL for at least one BRD strain)
CCCNC[C@]1(O)[C@H](C)O[C@@H](O[C@H]2[C@H](C)[C@@H](O[C@@H]3O[C@H](C)C[C@H](N(C)C)[C@H]3Oc3cncc(C(F)(F)F)c3)[C@](C)(O)C[C@@H](C)CN[C@H](C)[C@@H](O)[C@](C)(O)[C@@H](CC)OC(=O)[C@@H]2C)C[C@@]1(C)OC [Example E-70]	E-70* (MIC ≤ 64 μg/mL for at least one BRD strain)
CCCNC[C@]1(O)[C@H](C)O[C@@H](O[C@H]2[C@H](C)[C@@H](O[C@@H]3O[C@H](C)C[C@H](NC)[C@H]3Oc3ccc(OC)c(OC)c3)[C@](C)(O)C[C@@H](C)CN[C@H](C)[C@@H](O)[C@](C)(O)[C@@H](CC)OC(=O)[C@@H]2C)C[C@@]1(C)OC [Example E-74]	E-74* (MIC ≤ 64 μg/mL for at least one BRD strain)
CCCNC[C@]1(O)[C@H](C)O[C@@H](O[C@H]2[C@H](C)[C@@H](O[C@@H]3O[C@H](C)C[C@H](NC)[C@H]3Oc3ccc(-n4cccc4)cc3)[C@](C)(O)C[C@@H](C)CN[C@H](C)[C@@H](O)[C@](C)(O)[C@@H](CC)OC(=O)[C@@H]2C)C[C@@]1(C)OC [Example E-82]	E-82* (MIC ≤ 64 μg/mL for at least one BRD strain)
CCCNC[C@]1(O)[C@H](C)O[C@@H](O[C@H]2[C@H](C)[C@@H](O[C@@H]3O[C@H](C)C[C@H](N(C)C)[C@H]3Oc3ccccc3Cl)[C@](C)(O)C[C@@H](C)CN[C@H](C)[C@@H](O)[C@](C)(O)[C@@H](CC)OC(=O)[C@@H]2C)C[C@@]1(C)OC [Example E-83]	E-83* (MIC ≤ 64 μg/mL for at least one BRD strain)
CCCNC[C@]1(O)[C@H](C)O[C@@H](O[C@H]2[C@H](C)[C@@H](O[C@@H]3O[C@H](C)C[C@H](N(C)C)[C@H]3Oc3ccc4ccncc4c3)[C@](C)(O)C[C@@H](C)CN[C@H](C)[C@@H](O)[C@](C)(O)[C@@H](CC)OC(=O)[C@@H]2C)C[C@@]1(C)OC [Example E-85]	E-85* (MIC ≤ 64 μg/mL for at least one BRD strain)
CCCNC[C@]1(O)[C@H](C)O[C@@H](O[C@H]2[C@H](C)[C@@H](O[C@@H]3O[C@H](C)C[C@H](N(C)C)[C@H]3Oc3ccc(OC)c(OCC)c3)[C@](C)(O)C[C@@H](C)CN[C@H](C)[C@@H](O)[C@](C)(O)[C@@H](CC)OC(=O)[C@@H]2C)C[C@@]1(C)OC [Example E-88]	E-88* (MIC ≤ 64 μg/mL for at least one BRD strain)
CCCNC[C@]1(O)[C@H](C)O[C@@H](O[C@H]2[C@H](C)[C@@H](O[C@@H]3O[C@H](C)C[C@H](N(C)C)[C@H]3Oc3ccc(C(=O)N4CCCC4)cc3)[C@](C)(O)C[C@@H](C)CN[C@H](C)[C@@H](O)[C@](C)(O)[C@@H](CC)OC(=O)[C@@H]2C)C[C@@]1(C)OC [Example E-95]	E-95* (MIC ≤ 64 μg/mL for at least one BRD strain)
CCCNC[C@]1(O)[C@H](C)O[C@@H](O[C@H]2[C@H](C)[C@@H](O[C@@H]3O[C@H](C)C[C@H](N(C)C)[C@H]3Oc3ccccc3OCC)[C@](C)(O)C[C@@H](C)CN[C@H](C)[C@@H](O)[C@](C)(O)[C@@H](CC)OC(=O)[C@@H]2C)C[C@@]1(C)OC [Example E-96]	E-96* (MIC ≤ 64 μg/mL for at least one BRD strain)
CCCNC[C@]1(O)[C@H](C)O[C@@H](O[C@H]2[C@H](C)[C@@H](O[C@@H]3O[C@H](C)C[C@H](N(C)C)[C@H]3Oc3ccc(OC)cc3OC)[C@](C)(O)C[C@@H](C)CN[C@H](C)[C@@H](O)[C@](C)(O)[C@@H](CC)OC(=O)[C@@H]2C)C[C@@]1(C)OC [Example E-97]	E-97* (MIC ≤ 64 μg/mL for at least one BRD strain)
CCCNC[C@]1(O)[C@H](C)O[C@@H](O[C@H]2[C@H](C)[C@@H](O[C@@H]3O[C@H](C)C[C@H](NC)[C@H]3Oc3ccc(OC(F)(F)F)cc3)[C@](C)(O)C[C@@H](C)CN[C@H](C)[C@@H](O)[C@](C)(O)[C@@H](CC)OC(=O)[C@@H]2C)C[C@@]1(C)OC [Example E-101]	E-101* (MIC ≤ 64 μg/mL for at least one BRD strain)
CCCNC[C@]1(O)[C@H](C)O[C@@H](O[C@H]2[C@H](C)[C@@H](O[C@@H]3O[C@H](C)C[C@H](NC)[C@H]3Oc3ccc(C)cc3)[C@](C)(O)C[C@@H](C)CN[C@H](C)[C@@H](O)[C@](C)(O)[C@@H](CC)OC(=O)[C@@H]2C)C[C@@]1(C)OC [Example E-103]	E-103* (MIC ≤ 64 μg/mL for at least one BRD strain)
CCCNC[C@]1(O)[C@H](C)O[C@@H](O[C@H]2[C@H](C)[C@@H](O[C@@H]3O[C@H](C)C[C@H](NC)[C@H]3Oc3ccc(C(F)(F)F)cc3)[C@](C)(O)C[C@@H](C)CN[C@H](C)[C@@H](O)[C@](C)(O)[C@@H](CC)OC(=O)[C@@H]2C)C[C@@]1(C)OC [Example E-104]	E-104* (MIC ≤ 64 μg/mL for at least one BRD strain)
CCCNC[C@]1(O)[C@H](C)O[C@@H](O[C@H]2[C@H](C)[C@@H](O[C@@H]3O[C@H](C)C[C@H](N(C)C)[C@H]3Oc3ccccc3C#N)[C@](C)(O)C[C@@H](C)CN[C@H](C)[C@@H](O)[C@](C)(O)[C@@H](CC)OC(=O)[C@@H]2C)C[C@@]1(C)OC [Example E-105]	E-105* (MIC ≤ 64 μg/mL for at least one BRD strain)
CCCNC[C@]1(O)[C@H](C)O[C@@H](O[C@H]2[C@H](C)[C@@H](O[C@@H]3O[C@H](C)C[C@H](NC)[C@H]3Oc3ccc(Cl)cc3)[C@](C)(O)C[C@@H](C)CN[C@H](C)[C@@H](O)[C@](C)(O)[C@@H](CC)OC(=O)[C@@H]2C)C[C@@]1(C)OC [Example E-106]	E-106* (MIC ≤ 64 μg/mL for at least one BRD strain)
